Results on four compounds are retold here after patent US20240285571A1, “METHODS OF TREATING BONE INFECTIONS” (MICROBION CORPORATION, priority 2020, published 2024).

Molecules are shown by their SMILES. Read-outs that look alike come from different tables or passages of the source. Some results are limits rather than exact numbers.

As a reminder, the MIC is the lowest concentration found to suppress growth.

The subject of one test is MDR P. aeruginosa. Nature of the test: MIC against CF isolates (Example 7, Table 18). Type of test: cell-based. To be noted: Pseudomonas aeruginosa, Multi-drug resistant.
The subject of the next test is E. coli ATCC 25922. The settings on record: per CLSI M100-S24 or provided by Microbion; cited from earlier work.
Another test relates to E. coli. The test can be described thus: Broth microdilution MIC (Example 5). Type of test: cell-based, Escherichia coli. The settings on record: Escherichia coli. On the procedure: (§1) Test and Comparator Agents: The test agents were stored at room temperature until assayed. […] The stock solutions were allowed to stand for at least 1 hr prior to use to auto-sterilize.
(§2) TestMedia: Test media were prepared and stored in accordance with guidelines from CLSI (4, 6, 7).
(§3) Broth Microdilution MC Testing (Aerobic Bacteria and Yeast): The broth microdilution assay method employed for the susceptibility testing of aerobic bacteria (excluding N. gonorrhoeae which was evaluated by agar dilution) and yeast essentially followed the procedures described by CLSI (3, 4, 7, 8) and employed automated liquid handlers to conduct serial dilutions and liquid transfers. […] These would become the ‘mother plates’ from which ‘daughter’ or test plates would be prepared. The drugs (300 μL at 40× the desired top concentration in the test plates) were dispensed into the appropriate well in Column 1 of the mother plates. The Biomek 2000 was used to make serial two-fold dilutions through Column 11 in the “mother plate”. The wells of Column 12 contained no drug and ultimately served as the organism growth control wells.
(§4) The daughter plates were prepared using the Biomek FX which transferred 5 μL of drug solution from each well of a mother plate to the corresponding well of the correct daughter plate in a single step.
(§5) A standardized inoculum of each organism was prepared per CLSI methods (3, 7). Isolated colonies of each test isolate were picked from the primary plate and a suspension was prepared to equal a 0.5 McFarland turbidity standard. Standardized suspensions were then diluted […] (1:100 for yeast, 1:20 for bacteria). After dilution, the inoculum suspensions were then transferred to compartments of sterile reservoirs divided by length (Beckman Coulter), and the Biomek 2000 was used to inoculate all plates. Daughter plates were placed on the Biomek 2000 in reverse orientation so that plates were inoculated from low to high drug concentration.
(§6) The Biomek 2000 delivered 10 μL of standardized inoculum into each well of the appropriate daughter plate for an additional 1:20 dilution.
(§7) Plates were stacked 4 high, covered with a lid on the top plate, placed into plastic bags, and incubated at 35° C. for approximately 24-48 hr for all yeast isolates and 16-24 hr for aerobic bacteria. Plates were viewed from the bottom using a plate viewer. […] MIC endpoints for the test agents and control compounds were read per CLSI criteria (3, 7).

Another test concerns K. pneumoniae. The test can be described thus: Broth microdilution MIC (Example 5). Format: cell-based, Klebsiella pneumoniae. To be noted: Klebsiella pneumoniae. The method, then:
as §1, §2, §3, §4, §5, §6, §7
(In general: Broth dilution looks for growth in wells or tubes with falling amounts of substance.)

The subject of another test is S. agalactiae. Nature of the test: Broth microdilution MIC (Example 5). Type of test: cell-based. To be noted: Streptococcus agalactiae. The method in brief: (§8)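 MICs were determined by CLSI broth microdilution with serial two-fold drug dilutions in CLSI-prepared media. Inocula were set to 0.5 McFarland, diluted, and added to the plates. Bacteria were incubated at 35° C. for 16-24 hr, and endpoints were read visually per CLSI criteria.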

For another test, the system named is S. pyogenes. Nature of the test: Broth microdilution MIC (Example 5). Format: cell-based. To be noted: Streptococcus pyogenes. The method in brief: as §8
A further test relates to Enterobacteriaceae. The test can be described thus: MIC summary across Enterobacteriaceae (Example 5). To be noted: all evaluated Enterobacteriaceae isolates (Table 3). Format: cell-based, E. coli, K. pneumoniae, Enterobacter cloacae. On the procedure: (§9) Test and Comparator Agents: The test agents were stored at room temperature until assayed. All test agents were suspended and diluted in 100% dimethylsulfoxide (DMSO), and were ultimately tested at a final concentration of 0.06-64 μg/mL. The stock solutions were allowed to stand for at least 1 hr prior to use to auto-sterilize.
(§10) TestMedia: Test media were prepared and stored in accordance with guidelines from CLSI (4, 6, 7). […] Neisseria gonorrhoeae were evaluated by agar dilution using agar consisting of GC medium base (BD; Lot No. 4274618) supplemented with 1% IsoVitaleX (BD; Lot No. 5246843).
(§11) Broth Microdilution MC Testing (Aerobic Bacteria and Yeast): The broth microdilution assay method employed for the susceptibility testing of aerobic bacteria (excluding N. gonorrhoeae which was evaluated by agar dilution) and yeast essentially followed the procedures described by CLSI (3, 4, 7, 8) and employed automated liquid handlers to conduct serial dilutions and liquid transfers. […]
(§12) Plates were stacked 4 high, covered with a lid on the top plate, placed into plastic bags, and incubated at 35° C. for approximately 24-48 hr for all yeast isolates and 16-24 hr for aerobic bacteria. […] MIC endpoints for the test agents and control compounds were read per CLSI criteria (3, 7).

The subject of test [1] is beta-hemolytic streptococci. Nature of the test: MIC summary, beta-hemolytic streptococci (Example 5). Format: cell-based, S. pyogenes, S. agalactiae. To be noted: beta-hemolytic streptococci (Table 6); read-out: MIC values across isolates. The method, then:
as §9, §10, §11, §12

Test [2] has as its system Achromobacter spp. biofilm. The test can be described thus: Activity against biofilms (Example 7). Format: cell-based. To be noted: tested up to 250 μg/mL.
Another test concerns S. pneumoniae. To be noted: S. pneumoniae MMX 6837 (ATCC 49619); cited from earlier work.

With `NCC[C@H](O)C(=O)N[C@@H]1C[C@H](N)[C@@H](O[C@H]2O[C@H](CN)[C@@H](O)[C@H](O)[C@H]2O)[C@H](O)[C@H]1O[C@H]1O[C@H](CO)[C@@H](O)[C@H](N)[C@H]1O` [Amikacin], the MIC in the test with MDR P. aeruginosa (strain AGR14, P. aeruginosa) is above 64 µg/mL. In the test with MDR P. aeruginosa (strain MR14, P. aeruginosa), the MIC was above 64 µg/mL. In addition, in the test with E. coli ATCC 25922, the “MIC, acceptable range” value is 0.5 to 4 µg/mL and the “MIC, expected results” value was 1 to 2 µg/mL.

As to `OCC(S)CS.[Bi]` (stereo not drawn) [MB-2B, bismuth-2,3-dimercaptopropanol], the MIC in the test on E. coli (ATCC25922, E. coli MMX 102 (ATCC 25922), QC, read-out: MIC) is 2 µg/mL; against E. coli (ATCCBAA2469, E. coli MMX 5980 (ATCC BAA-2469), NDM-1) it was 2 µg/mL; in the test with E. coli (E. coli MMX 8423, ESBL, LevR CAZR GmR, read-out: MIC), 2 µg/mL; in the test on E. coli (E. coli MMX 8424, ESBL, CAZR, read-out: MIC), 4 µg/mL; in the test with E. coli (E. coli MMX 8425, ESBL, LevR CAZR GmR, read-out: MIC), 2 µg/mL; against K. pneumoniae (K. pneumoniae MMX 4622, KPC-2), 16 µg/mL. In addition, the MIC against K. pneumoniae (K. pneumoniae MMX 4623, KPC-2) is 32 µg/mL; against K. pneumoniae (K. pneumoniae MMX 4653, KPC-3) it was 16 µg/mL; against K. pneumoniae (K. pneumoniae MMX 4683, KPC-2), 8 µg/mL; in the test on K. pneumoniae (K. pneumoniae MMX 4684, ESBL, read-out: MIC), 32 µg/mL; in the test on K. pneumoniae (K. pneumoniae MMX 4685, ESBL, read-out: MIC), 8 µg/mL; against K. pneumoniae (K. pneumoniae MMX 4694, KPC-3), 8 µg/mL. Moreover, the MIC with K. pneumoniae (K. pneumoniae MMX 5979, NDM-1) stood at 16 µg/mL; in the test with S. agalactiae (S. agalactiae MMX 3741, ERYR CCR), 4 µg/mL; in the test on S. agalactiae (S. agalactiae MMX 3743, ERYR CCR) it was 4 µg/mL; in the test on S. agalactiae (S. agalactiae MMX 4077, ERYR CCR), 4 µg/mL; against S. agalactiae (S. agalactiae MMX 4079, ERYR CCR PenR MEMR) it was 8 µg/mL; in the test on S. pyogenes (S. pyogenes MMX 3068, EryR), 2 µg/mL. Besides, the MIC is 1 µg/mL against S. pyogenes (S. pyogenes MMX 3820, ERYR CLIR); 0.25 µg/mL with S. pyogenes (S. pyogenes MMX 3919, ERYR); 1 µg/mL in the test with S. pyogenes (S. pyogenes MMX 3929, ERYR CCR); 1 µg/mL with S. pyogenes (S. pyogenes MMX 5091, ERYR CCR); 2 to 32 µg/mL with Enterobacteriaceae; 0.25 to 8 µg/mL in [1].

Take `CC(S)C(C)S.[Bi]` (stereo not drawn) [MB-6, bismuth-2,3-butanedithiol]: the “Reduction in viable biofilm cells” value in [2] came to 5 log.

`C[C@@H](O)[C@H]1C(=O)N2C(C(=O)O)=C(S[C@@H]3CN[C@H](C(=O)N(C)C)C3)[C@H](C)[C@H]12` [Meropenem]: in the test with S. pneumoniae, the “CLSI QC range of MIC” value is “(0.06-0.25) μg/mL”.
